Experimental data as given in US10206394B2, “Herbicidal compounds” (Syngenta Participations AG, priority 2014, dated 2019).
Like-named read-outs stand apart in the source and are kept apart here.

Columns and labels:
Assay in all cases: Glasshouse assay for herbicidal activity (pre- and post-emergence), percentage phytotoxicity
Assay type in all cases: in vivo
[1] = test system: Avena fatua (AVEFA); conditions: Avena fatua, Rate 250 g/ha, 100%=total damage, 0%=no damage
Protocol: (§1) Test—Glasshouse Assay for Herbicidal Activity
(§2) Seeds of a variety of monocotyledonous and dicotyledonous test plants are sown in standard soil in pots. The plants are cultivated for one day (for pre-emergence (PRE)) or for about 12 days (for post-emergence (POST)) under controlled conditions in a glasshouse (warm climate species at 24/18° C., cool climate species at 20/16° C., both at day/night; 16 hours light; 65% humidity).
(§3) The test plants are then grown on, in a glasshouse (greenhouse) under controlled conditions (warm climate species at 24/18° C., cool climate species at 20/16° C., both at day/night; 16 hours light; 65% humidity) and are watered twice daily. 15 days after application of the test herbicide (15 DAA) (for post-emergence), and 20 days after application of the test herbicide (20 DAA) (for pre-emergence), the test plants are evaluated visually, and an assessed percentage phytotoxicity score is given for each herbicidal application on each plant species (with 100%=total damage to plant; 0%=no damage to plant).
(§4) The plant species tested are as follows: Alopecurus myosuroides (ALOMY), Avena fatua (AVEFA), Lolium perenne (LOLPE), Echinochloa crus-galli (ECHCG).

[2] = test system: Echinochloa crus-galli (ECHCG); conditions: Echinochloa crus-galli, Rate 250 g/ha, 100%=total damage, 0%=no damage
Protocol: as §1, §2, §3, §4

[3] = test system: Lolium perenne (LOLPE); conditions: Lolium perenne, Rate 250 g/ha, 100%=total damage, 0%=no damage
Protocol: as §1, §2, §3, §4

[4] = test system: Alopecurus myosuroides (ALOMY); conditions: Alopecurus myosuroides, Rate 250 g/ha, 100%=total damage, 0%=no damage
Protocol: as §1, §2, §3, §4

[5] = post-emergence, 360 h, post-emergence, assessed visually 15 DAA, read-out: Post-emergence herbicidal activity (percentage phytotoxicity) AVEFA POST
[6] = pre-emergence, 480 h, pre-emergence, assessed visually 20 DAA, read-out: Pre-emergence herbicidal activity (percentage phytotoxicity) AVEFA PRE
[7] = post-emergence, 360 h, post-emergence, assessed visually 15 DAA, read-out: Post-emergence herbicidal activity (percentage phytotoxicity) ECHCG POST
[8] = pre-emergence, 480 h, pre-emergence, assessed visually 20 DAA, read-out: Pre-emergence herbicidal activity (percentage phytotoxicity) ECHCG PRE
[9] = post-emergence, 360 h, post-emergence, assessed visually 15 DAA, read-out: Post-emergence herbicidal activity (percentage phytotoxicity) LOLPE POST
[10] = pre-emergence, 480 h, pre-emergence, assessed visually 20 DAA, read-out: Pre-emergence herbicidal activity (percentage phytotoxicity) LOLPE PRE
[11] = post-emergence, 360 h, post-emergence, assessed visually 15 DAA, read-out: Post-emergence herbicidal activity (percentage phytotoxicity) ALOMY POST
[12] = pre-emergence, 480 h, pre-emergence, assessed visually 20 DAA, read-out: Pre-emergence herbicidal activity (percentage phytotoxicity) ALOMY PRE

Compound | pest or weed control at 250 g/ha [1, 5] | pest or weed control at 250 g/ha [1, 6] | pest or weed control at 250 g/ha [2, 7] | pest or weed control at 250 g/ha [2, 8] | pest or weed control at 250 g/ha [3, 9] | pest or weed control at 250 g/ha [3, 10] | pest or weed control at 250 g/ha [4, 11] | pest or weed control at 250 g/ha [4, 12]
Cc1cc(-c2ncc(Cl)cc2F)cc(C)c1C1C(=O)CC(CC(=O)NCc2ccc(C(F)(F)F)nc2)C1=O (centres unmarked) [Compound A115] | 100% | 90% | 100% | 90% | 100% | 90% | 100% | 90%
Cc1cc(-c2ncc(Cl)cc2F)cc(C)c1C1C(=O)CC(CC(=O)NCc2ccc(Cl)nc2)C1=O (centres unmarked) [Compound A116] | 100% | 90% | 100% | 100% | 100% | 80% | 90% | 80%
Cc1cc(-c2ncc(Cl)cc2F)cc(C)c1C1C(=O)CC(CC(=O)NCc2cccc(Cl)c2)C1=O (centres unmarked) [Compound A117] | 100% | 70% | 100% | 100% | 100% | 90% | 90% | 70%
Cc1cc(-c2ncc(Cl)cc2F)cc(C)c1C1C(=O)CC(CC(=O)NCc2ccccc2F)C1=O (centres unmarked) [Compound A118] | 100% | 100% | 100% | 100% | 100% | 90% | 90% | 80%
Cc1cccc(CNC(=O)CC2CC(=O)C(c3c(C)cc(-c4ncc(Cl)cc4F)cc3C)C2=O)c1 (centres unmarked) [Compound A119] | 90% | 60% | 100% | 100% | 90% | 70% | 60% | 40%
Cc1cc(-c2ncc(Cl)cc2F)cc(C)c1C1C(=O)CC(CC(=O)NCc2cccc(C(F)(F)F)c2)C1=O (centres unmarked) [Compound A120] | 100% | 90% | 100% | 100% | 100% | 80% | 100% | 80%
Cc1cc(-c2ncc(Cl)cc2F)cc(C)c1C1C(=O)CC(CC(=O)NCc2ccc(OC(F)(F)F)cc2)C1=O (centres unmarked) [Compound A121] | 100% | 90% | 100% | 90% | 100% | 80% | 100% | 90%
Cc1cc(-c2ncc(Cl)cc2F)cc(C)c1C1C(=O)CC(CC(=O)NCc2cccc([N+](=O)[O-])c2)C1=O (centres unmarked) [Compound A122] | 100% | 0% | 100% | 90% | 70% | 20% | 90% | 70%
Cc1cnc(CNC(=O)CC2CC(=O)C(c3c(C)cc(-c4ncc(Cl)cc4F)cc3C)C2=O)s1 (centres unmarked) [Compound A123] | 80% | 70% | 100% | 90% | 90% | 80% | 80% | 60%
Cc1cc(-c2ncc(Cl)cc2F)cc(C)c1C1C(=O)CC(CC(=O)NC(C)c2ccc(F)cc2)C1=O (centres unmarked) [Compound A124] | 100% | 80% | 100% | 90% | 100% | 90% | 90% | 70%
